In data set [1] the target is T1, interaction of recombinant MBNL1 protein with (CUG)109 RNA (Homo sapiens, UniProt Q9NR56).
T1 construct: GST (with Prescission protease cleavage site) (N); made in house; host or cells: E. coli BL21(DE3)
Put plainly: Filter binding screening assay for inhibitors of MBNL1-(CUG)109 RNA interaction. To be noted: compound+(CUG)109 RNA 5 minutes, then recombinant MBNL1 15 minutes, among 9 aminoglycoside compounds tested. Here is the method: The order of addition was compound+(CUG)109 RNA (incubate 5 minutes), followed by recombinant MBNL1 protein (15 minute incubation), followed by application to filter.
Next, optimal conditions were defined (ionic-strength, monovalent cations, Mg^++ and other additions, temperature) for MBNL1-poly(CUG)^109 binding in solution. All forms of recombinant MBNL1 that were tested (GST fused or cleaved, full-length or truncation of C terminal hydrophobic region, 41 or 42 kD isoform) bind to poly(CUG)^109 at low protein concentration (FIG. 3, Kd values ˜10 nM), as determined by nitrocellulose filter binding assays. In this assay, nonspecific binding of labeled RNA to nitrocellulose was very low (<0.2% of maximal positive signal). As described below, disclosed herein are methods comprising a non-radioactive microtiter plate filter binding assay similar to the one used to examine binding activities of different forms of recombinant MBNL1 in FIG. 3.
The two components of this assay, fluorescence-labeled poly(CUG)^109 (FIG. 2B) and recombinant MBNL1 (FIG. 2A), have been developed and optimal conditions for MBNL1 binding to poly(CUG)^exp have been defined (50 mM Tris pH 8.0, 50 mM NaCl, 50 mM KCl, 1 mM Mg^++, 0.1 mM DTT) (see Preliminary Studies). Pilot binding assays have been carried out using nitrocellulose filters (FIG. 3A). […]

The test system of data set [2] is interaction of (CUG)109 RNA with MBNL1 protein. The data set can be described thus: Non-denaturing gel: PNA-CAG displacement of MBNL1 from (CUG)109 RNA. Type of data set: binding. To be noted: PNA 4-0.25 μM, then MBNL1 200 nM 30 min. The protocol: (§1) FIGS. 30A and 30B show protein displacement therapy with peptide nucleic acid (PNA) oligomers composed of CAG repeats.
(§2) Previously it was shown that expanded CUG repeat RNA forms stable hairpin structures (Tian B, et al. RNA 2000; 6:79-87). […] This transcript was incubated 30 min with different concentrations (8, 4, 2, 1, 0.5, 0.25 μM) of PNAs containing different length of CAG repeat sequence (PNA-CAG-6, Nterm-CAGCAG; PNA-CAG-9, Nterm-CAGCAGCAG; PNA-CAG-12, Nterm-CAGCAGCAGCAG (SEQ ID NO: 14); or PNA-CAG-15, Nterm-CAGCAGCAGCAGCAG) (SEQ ID NO: 15). FIG. 30B provides a variation including 5 PNA concentrations (4, 2, 1, 0.5, 0.25 μM) and after additional 30 min incubation step with recombinant MBNL1 (200 nM). Lane “C” in each panel is a control showing migration of fluorescein-labeled (CUG)109 transcript without PNA or MBNL1. Rapid migration of this transcript is caused by hairpin formation. […] Lanes “C+” in panel “B” show controls that contain (CUG)109 transcript and MBNL1 protein without PNA. These lanes show diffuse smear of (CUG)109 transcript, due to formation of heterogenous high molecular weight RNA-protein complexes. Addition of PNA displaces the MBNL1 protein from expanded CUG repeat RNA, disrupting these complexes and reconstituting a sharp band of (CUG)109 transcript. […]

For data set [3], the system named is (CUG)109 hairpins. The data set can be described thus: Non-denaturing gel: PNA-CAG interaction with fluorescein-labeled (CUG)109 transcript. The conditions noted are these: (CUG)109 10 nM, PNA 8-0.25 μM, 30 min. Type of data set: binding. The protocol:
as §1, §2

Data set [4] relates to ClC-1 exon 7a alternative splicing. Put plainly: RT-PCR of ClC-1 alternative splicing after CAG25 morpholino. Type of data set: in vivo, HSA^LR transgenic mice. The conditions noted are these: tibialis anterior, vs saline contralateral. The text has this:
Adult wild-type (WT) mice show low levels of exon 7a inclusion. In HSA^LR transgenic mice, the fraction of ClC-1 splice products that include exon 7a is increased. Inclusion of exon 7a causes a frame shift and creates a premature termination codon that truncates most of the ClC-1 coding sequence. Of note, transcripts that include exon 7a have accelerated degradation via nonsense mediated decay, therefore they are underrepresented at steady state and on this gel. The higher bands on the gel are other alternative splice products, as shown (Mankodi et al, Molecular Cell 10:35-44, 2002.) In HSA^LR transgenic mice, injection of CAG morpholino into tibialis anterior improved the defect of ClC-1 alternative splicing. Morpholino-treated muscle is indicated by “+”. Results from tibialis anterior in the opposite hindlimb, injected with saline alone, are indicated by “−”.

In data set [5] the test system is MBNL1 protein in ribonuclear foci. Put plainly: MBNL1 immunofluorescence after CAG25 morpholino injection into tibialis anterior. It is filed as in vivo, HSA^LR transgenic mice. To be noted: intramuscular injection + electroporation, vs saline contralateral. The protocol:
The morpholino was compromised entirely of CAG repeats and was 25 nucleotides in length (CAG25). CAG25 morpholino dissolved in phosphate buffered saline was injected into tibialis anterior muscle of HSA^LR transgenic mice, followed by electroporation to facilitate entry into muscle cells. The contralateral tibialis anterior muscle was injected with saline alone, followed by electroporation. The distribution of MBNL1 in tibialis anterior was determined by immunofluorescence with anti-MBNL1 antibody A2764. In muscle injected with saline, MBNL1 was sequestered in ribonuclear foci (nuclei are counterstained with DAPI).

Data set [6] has as its system recombinant MBNL1 protein with (CUG)109 RNA. Put plainly: Gel shift assay of MBNL1 with (CUG)109 RNA in presence of CAG25 morpholino. To be noted: increasing amounts of CAG25 morpholino. It is filed as binding, human. The text has this:
Interaction of recombinant MBNL1 protein with (CUG)109 RNA was examined by gel shift assay, in the presence of increasing amounts of CAG25 morpholino.
Also disclosed herein are methods involving the interaction of soluble, fluorescently-labeled MBNL1 protein with poly(CUG)^109 tethered at the surface of a microtiter plate. Different commercial microtiter plates for capacity to bind in vitro transcribed poly(CUG)^109 and background activity (non-specific binding of labeled MBNL1). For tethering poly(CUG)^109 to plates, a “capture” oligodeoxynucleotide (ODN) complementary to the A-rich 3′ terminus of the poly(CUG)^109 transcript, labeled either with biotin or a reactive group at the 5′ end for attachment to the plate (shown in FIG. 3C in the case of biotin) was used. […] Next, the concentration of capture ODN that saturates binding sites (12.5 pmoles/100 μl/well) and the concentration of poly(CUG)^109 that saturates the capture ODN (of 5 pmole added per well, 0.5 pmole was bound to capture ODN) were determined. Additionally, conditions for fluorescence labeling of MBNL1 protein via conjugation between primary amines on protein and fluorescein-EX dyes (Molecular Probes) were determined. The detection threshold and range of linearity was determined for labeled protein in gels and microplates (FIG. 2B). […]
Background: Mobility shift assays separate free from complexed probe on a gel.

The subject of data set [7] is HSA^LR transgenic mice. Put plainly: Electromyography of myotonia after CAG25 morpholino. Type of data set: in vivo. To be noted: p<0.001. The text has this: FIG. 17 uses Electromyography to show the improvement of myotonia at 3 and 6 weeks after injection of CAG25 morpholino into tibialis anterior of HSA^LR transgenic mice. Myotonia is a state of muscle hyperexcitability in which muscle fibers display repetitive action potentials. Myotonia in the HSA^LR transgenic mouse model of myotonic dystrophy is caused by abnormal regulation of alternative splicing for ClC-1 and subsequent reduction of chloride ion channels in muscle fibers. A parallel abnormality of ClC-1 alternative splicing exists in human myotonic dystrophy. […] For each mouse, CAG25 morpholino dissolved in saline was injected into tibialis anterior muscle of one hindlimb, whereas saline alone was injected into tibialis anterior on the opposite side. The side of morpholino injection was randomly assigned. Electromyography was performed by a blinded examiner Severity of myotonia was graded on a 4 point scale: 0=no myotonic, 1=occasional myotonic discharge (fewer than 25% of needle insertions), 2=abundant myotonic discharges (25-75% of needle insertions), and 3=florid myotonia (myotonic discharges in nearly every needle insertion).

The test system of data set [8] is ZASP alternative splicing. Put plainly: RT-PCR of ZASP alternative splicing after CAG25 morpholino. To be noted: 3 weeks following CAG25 injection, tibialis anterior. It is filed as in vivo, HSA^LR transgenic mice. The text has this:
Morpholino-treated muscle is indicated by “+”. Results from tibialis anterior in the opposite hindlimb, injected with saline alone, are indicated by “−”. The side of morpholino injection was randomly determined, and this assignment remained blinded until after the splicing analysis was completed.

Data set [9] has as its system ClC-1 chloride channel. Put plainly: ClC-1 immunofluorescence after CAG25 morpholino. It is filed as in vivo, HSA^LR transgenic mice. To be noted: 3 weeks following injection. The text has this:
Immunofluorescence for ClC-1 chloride channel is shown in sections of tibialis anterior muscle from HSA^LR transgenic mice. Muscle fibers show mosaic expression of ClC-1 in HSA^LR muscle injected with saline. Some of these fibers are completely lacking in ClC-1 protein.

Data set [10] concerns SERCA1 alternative splicing. Put plainly: RT-PCR of SERCA1 alternative splicing after CAG25 morpholino. The conditions noted are these: 3 weeks following CAG25 injection, tibialis anterior, 4 mice. Type of data set: in vivo, HSA^LR transgenic mice. An excerpt:
Morpholino-treated muscle is indicated by “+”. Results from tibialis anterior in the opposite hindlimb, injected with saline alone, are indicated by “−”. The side of morpholino injection was randomly determined, and this assignment remained blinded until after the splicing analysis was completed. Het. dupl. indicates a heteroduplex PCR product.

For data set [11], the target named is T2, interaction of CUG repeat RNA with recombinant MBNL1 protein (Homo sapiens, UniProt Q9NR56).
T2 construct: GST (with Prescission protease cleavage site) (N); made in house; host or cells: E. coli BL21(DE3)
T2 sequence (Q9NR56 1-382 isoform Q9NR56-5): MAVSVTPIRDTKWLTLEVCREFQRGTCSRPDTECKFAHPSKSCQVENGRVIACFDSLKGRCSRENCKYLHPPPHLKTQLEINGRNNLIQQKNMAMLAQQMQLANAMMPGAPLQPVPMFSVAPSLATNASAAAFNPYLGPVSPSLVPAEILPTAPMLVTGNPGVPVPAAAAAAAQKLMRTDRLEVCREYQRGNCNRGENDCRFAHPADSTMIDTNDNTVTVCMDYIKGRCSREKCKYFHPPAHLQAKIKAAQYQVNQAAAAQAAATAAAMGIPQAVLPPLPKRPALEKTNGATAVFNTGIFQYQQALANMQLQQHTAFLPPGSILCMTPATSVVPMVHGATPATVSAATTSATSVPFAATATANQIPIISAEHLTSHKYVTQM
Put plainly: Fluorescence anisotropy assay for inhibitors of CUG repeat RNA-MBNL1 interaction. Type of data set: binding. The conditions noted are these: (CUG)36 transcript 2 nM, aminoglycoside 10 or 50 μM, MBNL1 100 nM. Here is the method:
Fluorescein-labeled (CUG)36 transcript (2 nM) was incubated first with aminoglycoside compound (10 or 50 μM) and then with excess amount of recombinant MBNL1 protein (100 nM). To calculate the fraction of CUG repeat RNA that remains bound to MBNL1 protein (“% bound CUG^exp”, vertical axis), results are expressed as the percentage of maximal fluorescence anisotropy in assays from which aminoglycosides were omitted. […] Values are the average +/−SD from three measurements.
Fluorescein-labeled (CUG)36 RNA (2 nM) was incubated with MBNL1 protein (100 nM) and anisotropy was measured at time points ranging from 1 to 90 minutes. Increasing values for fluorescence anisotropy indicate interaction of fluorescein-labeled (CUG)36 transcript with MBNL1 protein.
MBNL1 protein is known to bind CUG repeat RNAs that form a stable secondary structure (hairpin structure). Aminoglycoside antibiotics were examined to determine whether these compounds can inhibit the interaction of MBNL1 protein with CUG repeat RNA. Aminoglycosides were selected because they are known to bind structured RNA. […] To calculate the fraction of CUG repeat RNA that remains bound to MBNL1 protein (“% bound CUG^exp”, vertical axis), results are expressed as the percentage of maximal fluorescence anisotropy in assays from which aminoglycosides were omitted. […]

T1 sequence (Q9NR56 1-382 isoform Q9NR56-5): as above

On to gentamicin, for which the “activity to inhibit formation of MBNL1-poly(CUG)^exp RNA-protein complexes” value in [1] was “highest activity”.
For the substance “PNA-CAG-15: peptide nucleic acid Nterm-CAGCAGCAGCAGCAG (all peptide nucleic acid (PNA))”, in data set [2], the “inhibition of interaction of (CUG)109 RNA with MBNL1 protein” value was “inhibit the interaction of (CUG)109 RNA with MBNL1 protein”. In addition, the “interaction with expanded CUG repeat hairpin structures (gel migration of (CUG)109 transcript)” value in data set [3] is recorded as “can invade (CUG)109 hairpins”.
“CAG25 morpholino: morpholino comprised entirely of CAG repeats, 25 nucleotides in length (antisense AGCAGCAGCAGCAGCAGCAGCAGCA; all phosphorodiamidate morpholino (PMO))”: in data set [4], the “ClC-1 alternative splicing (exon 7a)” value was “improved the alternative splicing of ClC-1”. In data set [5], the “distribution of MBNL1 in tibialis anterior nuclei” value was “more widely distributed throughout the nucleus”. Besides, the “inhibition of interaction of MBNL1-poly(CUG)^exp RNA in vitro” value in data set [6] is “inhibits the interaction”. In addition, the “myotonia severity (EMG)” value in [7] (3 weeks after injection) and in data set [7] (6 weeks after injection) was “significant reduction of myotonia” each time. The ZASP alternative splicing entry in data set [8] is listed as “improved regulation of alternative splicing for ZASP”. The “expression of ClC-1 chloride channel at the surface membrane” value in data set [9] is reported as “increased expression ClC-1 protein at the surface membrane”. Moreover, the SERCA1 alternative splicing entry in data set [10] was “improved the defect of SERCA1 alternative splicing”.
For “PNA-CAG-12: peptide nucleic acid Nterm-CAGCAGCAGCAG (all peptide nucleic acid (PNA))”, the “inhibition of interaction of (CUG)109 RNA with MBNL1 protein” value in [2] is “inhibit the interaction of (CUG)109 RNA with MBNL1 protein”. The “interaction with expanded CUG repeat hairpin structures (gel migration of (CUG)109 transcript)” value in data set [3] is recorded as “can invade (CUG)109 hairpins”.
With neomycin, in [1], the “activity to inhibit formation of MBNL1-poly(CUG)^exp RNA-protein complexes” value is listed as “highest activity”. Further, the “inhibition of MBNL1 binding to CUG repeat RNA (% bound CUG^exp)” value in [11] was “strongest inhibition”.

Source of the values: patent publication US9371527B2, “Compositions and methods related to protein displacement therapy for myotonic distrophy” (University of Rochester, priority 2006, dated 2016).
